Patent publication US9757408B2 (Hayashibara Co., Ltd., priority 2010, dated 2017)
Marks after values point to notes of the source that are not given here.

Tests used:
[1] = test system: TNF-α production of HUVEC cells; test: TNF-α production of HUVEC cells, LPS/IL-1β/IFN-γ (Experiment 6-1); assay type: cell-based, human; conditions: for TNF-α Concentration: HUVEC, LPS 10 μg/mL, IL-1β, IFN-γ; for IC50: Homo sapiens, LPS in the coexistence of IL-1β and IFN-γ, read-out: IC50 against production inhibition of TNF-α
Description: The results are in Table 6 in parallel.

[2] = test system: tissue factor expression in HUVEC cells; test: Expression of tissue factor in HUVEC cells, ELISA of cell lysate (Experiment 6-2); assay type: cell-based, human; conditions: for concentration which significantly inhibited the expression of tissue factor: LPS; for concentration which significantly inhibited the expression of tissue factor / Amount of expressed tissue factor: IL-1β, IFN-γ; for Amount of expressed tissue factor: HUVEC, LPS 10 μg/mL
Method: Thereafter, a solution of LPS, IL-1β, and IFN-γ were respectively prepared to give respective concentrations of 10 μg/mL, 2 ng/mL, and 500 IU/mL, added to the cells in an amount of 50 μL/well, and incubated at 37° C. for 5.5 hours in a 5% v/v CO2 incubator. After the culture, the cells were washed twice with PBS, followed by adding PBS to the resulting cells in a volume of 50 μL/well. The multi-plates were subjected to a freezing at −80° C. and thawing process thrice, followed by adding 50 mM Tris buffer (pH 7.4) containing 100 mM NaCl and 0.2% Triton X-100 to the microplates in an amount of 50 μL/well, culturing the cells at 4° C. overnight to prepare a cell lysate. The content of tissue factor in the cell lysate was determined by “AssayMax Human Tissue Factor ELISA Kit”, a product name of ELISA commercialized by Assay Pro, USA.

[3] = test system: VCAM-1 expression in HUVEC cells; test: Expression of cell-adhesion factor VCAM-1 on HUVEC cells, fluorescent intensity (Experiment 6-3); assay type: cell-based, human; conditions: LPS 10 μg/mL, IL-1β, IFN-γ
Method: Thereafter, the supernatant in each well was removed by suction, and the cells were washed twice with PBS, followed by adding 4% paraformaldehyde to the cells and allowing them to stand at ambient temperature for one hour to fix them. After the fixation, the cells were washed thrice with PBS, followed by adding PBS containing 1% BSA and 0.05% NaN3 in an amount of 150 μL/well, and subjecting the cells to blocking at 4° C. overnight. […] Thereafter, the cells were washed four times with PBS, adding an HRPO-labeled streptavidin (“Streptavidin HRP Conjugate”, a product name of Invitrogen Corporation, CA, USA), which had been diluted with PBS containing 3% BSA by 1,000 times, in an amount of 100 μL/well and allowing the cells to stand at ambient temperature for one hour. Finally, the cells were washed four times with PBS, allowed to develop color for 10 min with “QuantaBlue™ Fluorogenic Peroxidase Substrate”, commercialized by Pierce Biotechnology, IL, USA, and determined the cells' fluorescent intensity at a wavelength of 325 to 420 nm. […] The results are in Table 6 in parallel.

[4] = test system: lipopolysaccharide (LPS)-induced endotoxin shock mice; test: LPS-induced endotoxin shock mice, survival, ANO i.v. simultaneously with LPS (Experiment 1); assay type: in vivo, BALB/c mice; conditions: LPS 15 mg/kg i.p.; for Survival rate (%) of mice, 7 Hours: 7 hours after LPS; for Survival rate (%) of mice, 19 Hours: 19 hours after LPS; for Survival rate (%) of mice, 26 Hours: 26 hours after LPS; for Survival rate (%) of mice, 43 Hours: 43 hours after LPS
Method: USA, which had been dissolved in phosphate buffered saline (PBS) (Experiment groups 1 to 3). […] To the remaining five heads of another one group were intravenously administered with 0.2 mL/head of PBS simultaneously with the LPS administration (Experiment group 1). For each group, the survival number of mice was macroscopically observed up to 7 to 43 hours after the LPS administration, and based on this, the survival rate was determined for each group. The survival rate (%) of mice for each group was calculated by dividing the survival number of mice at each observation time with the survival number of mice at the initiation of this experiment, and multiplying the obtained value by 100.

[5] = test system: IL-12 in serum of mice administered with LPS; test: Serum IL-12 in LPS-administered mice, ANO i.v. (Experiment 7); assay type: in vivo, BALB/c mice; conditions: LPS 18 mg/kg i.p., serum two hours after LPS
Method: More specifically, 18 BALB/c female mice, 9-week-old, commercialized by Japan Charles River, Tokyo, Japan, were randomly divided into three groups, six heads each. An LPS specimen derived from E. coli (055:B5), commercialized by Sigma-Aldrich Corporation, St. Louis, Mo. USA, was dissolved in physiological saline and intraperitoneally administered to all the 6 mice in respective three groups at a dose of 18 mg/kg body weight of LPS (Experiment groups 1 to 3). […] To the six mice of the remaining one group was intravenously administered PBS in a liquid volume of 0.2 mL/head simultaneously with the administration of LPS (Experiment group 1).
For the mice in each group, they were collected blood at two hours after the LPS administration, followed by assaying the level of TNF-α, IL-6, IL-10, and IL-12 in each serum and averaging the data for each group. For the assay of the level of TNF-α, the same ELISA as in Experiment 2 was used and for the assay of the level of IL-6, the same ELISA as in Experiment 3 was used. […]

[6] = Body weight of picryl chloride-sensitized mice applied with gels (Experiment 16); conditions: picryl chloride-sensitized NC/Nga mice, throughout the test period
Method: The eight mice in each five groups were sensitized (may be simply called “sensitization”, hereinafter) with picryl chloride (Tokyo Chemical Industry Co., Ltd., Tokyo, Japan) in such a manner of dropping a solution, which had been dissolved in a mixture solution of ethanol and acetone in a volume ratio of 4:1 at a concentration of 5%, on the shaved abdominal skin of the mice and on four footpads in a total volume of 150 μL/mouse, and spreading the solution over the abdominal skin and the foot pads by using a micropipette similarly as above.
Throughout the test period, the mice were weighed once a week. The judgement of the conditions of skin inflammation was conducted twice a week every Tuesday and Friday from the 3rd induction for the degrees of four items of red flare/bleeding, edema (swelling of earflap), chafing/loss of tissue, and the formation of scar tissue/drying, and scored based on the criterion of four grades shown in Table 17; “0” (symptomless), “1” (mild), “2” (moderate), and “3” (severe). The total scores of each evaluation items for each group were averaged for use as a skin score.

Structure (SMILES) | TNF-α Concentration ([1]; test substance 1 μM) | TNF-α Concentration ([1]; test substance 2 μM) | TNF-α Concentration ([1]; test substance 5 μM) | IC50 ([1]; HUVEC cells) | concentration which significantly inhibited the expression of tissue factor ([2]; HUVEC cells) | Amount of expressed tissue factor ([2]; test substance 1 μM) | Amount of expressed tissue factor ([2]; test substance 2 μM) | Amount of expressed tissue factor ([2]; test substance 5 μM) | Amount of expressed tissue factor ([2]; test substance 10 μM) | Amount of expressed VCAM-1 ([3]; test substance 1 μM) | Amount of expressed VCAM-1 ([3]; test substance 2 μM) | Amount of expressed VCAM-1 ([3]; test substance 5 μM) | Amount of expressed VCAM-1 ([3]; test substance 10 μM) | other results
Nc1ncnc2c1ncn2[C@@H]1O[C@H](CO)[C@@H](O)[C@H]1O [AN, adenosine] | 53 pg/mL | 49.2 pg/mL | 40.3 pg/mL | 15.2 µM | at least 5 μM | 27.1 | 26.6 | 13.9** | 4.5** | 3,824 | 3,957 | 3,609** | 2,823** | TNF-α Concentration ([1]; test substance 10 μM): 31.1** pg/mL
Nc1c2ncn([C@@H]3O[C@H](CO)[C@@H](O)[C@H]3O)c2nc[n+]1[O-] [ANO, adenosine N1-oxide] | 25.1** pg/mL | 12.3** pg/mL | 1.8** pg/mL | 0.97 µM | at least 0.5 μM | 12.9** | 9.4** | 0** | 0** | 3,920 | 3,967 | 3,603* | 2,823** | TNF-α production inhibitory action stronger than that of adenosine ([1]; HUVEC cells, comparison of IC50): about 16 times; TNF-α Concentration ([1]; test substance 0.2 μM): 51 pg/mL; TNF-α Concentration ([1]; test substance 0.5 μM): 41.1 pg/mL; inhibitory strength on tissue factor expression, stronger than adenosine ([2]; HUVEC cells): at least 10 times; Amount of expressed tissue factor ([2]; test substance 0.2 μM): 27.6; Amount of expressed tissue factor ([2]; test substance 0.5 μM): 13.5**; Amount of expressed VCAM-1 ([3]; test substance 0.2 μM): 4,123; Amount of expressed VCAM-1 ([3]; test substance 0.5 μM): 4,052; Survival rate (%) of mice, 7 Hours ([4]; ANO 15 mg/kg body weight i.v.): 100%; Survival rate (%) of mice, 19 Hours ([4]; ANO 15 mg/kg body weight i.v.): 100%; Survival rate (%) of mice, 26 Hours ([4]; ANO 15 mg/kg body weight i.v.): 80%; Survival rate (%) of mice, 43 Hours ([4]; ANO 15 mg/kg body weight i.v.): 80%; Survival rate (%) of mice, 7 Hours ([4]; ANO 45 mg/kg body weight i.v.): 100%; Survival rate (%) of mice, 19 Hours ([4]; ANO 45 mg/kg body weight i.v.): 100%; Survival rate (%) of mice, 26 Hours ([4]; ANO 45 mg/kg body weight i.v.): 100%; Survival rate (%) of mice, 43 Hours ([4]; ANO 45 mg/kg body weight i.v.): 80%; IL-12 Concentration ([5]; ANO 68 mg/kg i.v.): 136** pg/mL; IL-12 Concentration ([5]; ANO 135 mg/kg i.v.): 105** pg/mL
OC[C@H]1O[C@@H](n2cnc3c(O)ncnc32)[C@H](O)[C@@H]1O [IN, inosine] | – | – | – | – | – | – | – | – | – | – | – | – | – | body weight of mice applied with the gel [6]: reduction of increasing rate of their body weights
